Results reported in publication PMC10818746, “Inhibition of CYP1A1 Alleviates Colchicine-Induced Hepatotoxicity” (Toxins, 2024).

Assays:
[1] = system: CASPASE-1-GSDMD pathway; assay: Western blot of CASPASE-1-GSDMD pathway in primary hepatocytes; format: cell-based, C57BL/6J mice
Protocol: (§1) The method of isolating primary mouse hepatocytes from mice (C57BL/6J) was that shown in the previous report, and it is briefly described in Supporting Information.
(§2) The cells were harvested and used for protein extraction after incubation for 48 h. […]
(§3) Supplementary materials and methods […]
(§4) Preparation of primary hepatocytes
(§5) Primary mouse hepatocytes were isolated from male C57BL/6J mice as shown in previous literature. The liver was perfused through the portal vei n with Hanks solution twice (the first solution contains 1% penicillin/streptomycin, the second solution contains 0.05% collagenase IV) after mice were anesthetized with ether, and then they were killed by exsanguination. Hepatocytes were harvested by centrifugation three times (The first centrifugal condition is 50 0 rpm for 3 minutes, the second and third centrifugal condition is 1500 rpm for 5 min) after the perfused liver was passed through 100 filter sizes, and they were re‐suspended in Dulbeco Modified Eagle Medium (DMEM) (Hyclone, USA).
(§6) Cells were collected and seeded at a density of 2 × 10^5 cells ml‐1 in plates and cultured overnight in William E (Gibco, USA) medium (0.5 U/mL insulin, 1% penicillin/streptomycin, 10% FBS and 0.4 μg/mL dexamethasone) at 37 ℃ in a humidified Air /CO2 Incubator (5% V/V). […]
QPCR were performed as described previously. Briefly, Trizol reagent (Life Technologi es, Carlsbad, CA, USA) and SYBR Green PCR master mixture (Vazyme, Nanjing, China) were used for the experiment . The qPCR was performed in the CFX Connect real‐time system (Bio‐Rad Laboratories, Hercules, CA, USA), with 18S was used as […]
The methods for Western blot analysis were described in previous literature. Briefly, RIPA (POO13B, Beyotime Biotech), BCA kit (P0009, Beyotime Biotech), and 5% BSA (A8020, Solarbio) buffer were used for the experiment. […]

[2] = system: CYP1A1; assay: CYP1A1 gene and protein expression in primary hepatocytes; format: cell-based, C57BL/6J mice; settings: colchicine 4–400 µM, 48 h
Protocol: as §1, §2, §3, §4, §5
Cells were collected and seeded at a density of 2 × 10^5 cells ml‐1 in plates and cultured overnight in William E (Gibco, USA) medium (0.5 U/mL insulin, 1% penicillin/streptomycin, 10% FBS and 0.4 μg/mL dexamethasone) at 37 ℃ in a humidified Air /CO2 Incubator (5% V/V).
Quantitative real‐time PCR analysis
QPCR were performed as described previously. […]

[3] = system: CYP1A1; assay: CYP1A1 gene and protein expression in the liver of colchicine-treated mice; format: in vivo, C57BL/6J mice; settings: colchicine 3, 5 mg/kg by gavage for 3 days; dose-dependent
Protocol: (§7) Ruoyue Huang, Jingyi Duan, We n Huang, Ya n Cheng, Bei wei Zhu and Fei Li
(§8) Supplementary materials and methods
(§9) Reference numbers refer to the main text list
(§10) UHPLC‐Q exactive plus MS Analysis
(§11) All samples were analyzed on a liquid chromatography system including a Vanquish autosampler, Vanquish detector, Vanquish pump (Thremo Fisher Scientific, Santa Clara, CA). Samples were separated on an ACQUITY UPLC HSS T3 column (2.1×100 mm, […], Waters, USA). The injection volume: 5 μL, and the flow rate was 0.3 mL/min.
(§12) Phase A was H2O containing 0.01% formic acid, and phase B was acetonitrile containing 0.01% formic acid. The elution gradient was as follows: 0‐12 mi n, 2‐98% B; 12‐14 min, 2% A; 14‐16 min, 98% A. Other parameters are as follows: column temperature 45 ℃ , flow rate of collision gas and dry gas 9 L/min. Capillary voltage 3.5 kV, temperature 350 ℃ , atomizer pressure 35 psi. Vanquish UHPLC‐Q Exactive plus MS (Thermo Fisher, USA) was collected in both positive modes, operating in full scan mode with 60‐900 m/z.
as §4
Primary mouse hepatocytes were isolated from male C57BL/6J mice as shown in previous literature. […]
(§13) Quantitative real‐time PCR analysis […]
(§14) Immunohistochemistry was determined by used the previously described method. […]

[4] = system: liver; assay: Colchicine-induced liver injury in mice
Protocol: The animal studies were approved by the Animal Care and Use Committee of West China Hospital, Sichuan University (20230412004, the ethics approval date was 12 April 2023). Chengdu Yaokang Biotechnology Co., Ltd. (Chengdu, China), provided the male C57BL/6J mice (18–22 g, 6 to 8 weeks old, No. SCXK (Sichuan) 2020-034). All animals were acclimated to the experimental environment for 1 week, and finally, the animals were anesthetized with CO2 and killed [38].
ALP, ALT and AST were measured in plasma, and MDA (Nanjing Jiancheng Bioengineering Institute, Nanjing, China) was measured in the liver. Histological characteristics were observed by preparing paraffin sections of liver tissue and performing hematoxylin and eosin (H&E) staining.

[5] = system: primary hepatocytes; assay: MTT cell viability in primary hepatocytes co-treated with colchicine and diosmin; format: cell-based, C57BL/6J mice; settings: diosmin pre-treatment 2 h, then colchicine 100 µM, 48 h
Source text: The method of isolating primary mouse hepatocytes from mice (C57BL/6J) was that shown in the previous report, and it is briefly described in Supporting Information. […]
as §3, §4, §5, §6
QPCR were performed as described previously. Briefly, Trizol reagent (Life Technologi es, Carlsbad, CA, USA) and SYBR Green PCR master mixture (Vazyme, Nanjing, China) were used for the experiment . […]

[6] = system: liver; assay: Diosmin co-treatment in colchicine-induced liver injury in mice; format: in vivo, C57BL/6J mice
Protocol: To investigate the role of CYP1A1 in colchicine-induced liver injury in mice, a CYP1A1 agonist (diosmin) was used. […] All mice in the control group received 0.5% CMC-Na prior to the administration of water, and the mice were sacrificed for sample collection 24 h after the final administration.
Supplementary Materials: Inhibition of CYP1A1 Alleviates
as §7, §8, §9, §10, §11
as §12, with “Vanquish UHPLC‐Q Exactive plus MS (Thermo Fisher, USA) was collected in both positive modes, operating in full scan mode with 60‐900 m/z.” left out
as §13, §14

[7] = system: liver; assay: α-Naphthoflavone intervention in colchicine-induced liver injury in mice; format: in vivo, C57BL/6J mice
[8] = target: T1, CYP1A1 (Homo sapiens, UniProt P04798); assay: Inhibition of CYP1A1 demethylation metabolism of colchicine by co-incubation with inhibitor; format: biochemical; settings: colchicine 25 µM co-cultured with α-naphthoflavone 10 µM; n = 3
T1 construct: purchased Research Institute for Liver Diseases Co., Ltd. (Shanghai, China)
T1 sequence (P04798 1-512): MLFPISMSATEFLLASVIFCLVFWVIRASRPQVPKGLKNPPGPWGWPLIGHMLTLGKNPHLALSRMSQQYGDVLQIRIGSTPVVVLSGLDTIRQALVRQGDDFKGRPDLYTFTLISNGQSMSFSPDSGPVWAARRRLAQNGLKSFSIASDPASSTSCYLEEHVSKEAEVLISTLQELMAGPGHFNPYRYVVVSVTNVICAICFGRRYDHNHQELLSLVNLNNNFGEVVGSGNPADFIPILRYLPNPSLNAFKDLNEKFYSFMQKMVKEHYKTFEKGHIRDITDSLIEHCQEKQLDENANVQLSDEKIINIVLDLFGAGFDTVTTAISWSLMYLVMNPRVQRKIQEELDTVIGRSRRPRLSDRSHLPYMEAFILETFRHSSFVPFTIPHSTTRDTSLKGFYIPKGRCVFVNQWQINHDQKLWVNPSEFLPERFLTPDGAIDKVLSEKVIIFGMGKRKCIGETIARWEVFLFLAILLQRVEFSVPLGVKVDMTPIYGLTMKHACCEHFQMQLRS
Protocol: The control group was a system without NADPH or colchicine. […] Pre-cooled acetonitrile was used to terminate the reaction, and then centrifugation (4 °C, 12,000 rpm, 20 min) was performed to obtain the sample.
All samples were analyzed as shown in [17] and are briefly described in Supporting Information.

[9] = colchicine 3, 5 mg/kg by gavage for 3 consecutive days

## COc1cc2c(c(OC)c1OC)-c1ccc(OC)c(=O)cc1[C@@H](NC(C)=O)CC2 [colchicine, Colchicine]
[1]; colchicine group versus control
  CASPASE-1-GSDMD pathway in primary hepatocytes: significantly up-regulated
[2]
  mRNA and protein levels of CYP1A1 in primary hepatocytes: dose-dependently increased
[3]
  mRNA and protein levels of the CYP1A1 enzyme in the liver: increased
[4]; colchicine 5 mg/kg, versus control group
  CASPASE-1-GSDMD pathway in the liver: activated
[4]; [9]
  ALP enzyme level in plasma: significantly increased
  ALT enzyme level in plasma: significantly increased
  AST enzyme level in plasma: significantly increased
  CASPASE-1 in the liver (gene expression, immunohistochemical staining): activated
  body weight of mice: decreased significantly
  gross anatomy of the liver: enlarged liver and shrunken gallbladder
  liver histology, H&E staining: inflamed liver

## COc1ccc(-c2cc(=O)c3c(O)cc(O[C@@H]4O[C@H](CO[C@@H]5O[C@@H](C)[C@H](O)[C@@H](O)[C@H]5O)[C@@H](O)[C@H](O)[C@H]4O)cc3o2)cc1O [diosmin]
[1]; diosmin in a dose-gradient manner + colchicine 100 µM, compared to the colchicine-only group
  CASPASE-1-GSDMD pathway in primary hepatocytes: significantly up-regulated
[5]
  primary hepatocyte death caused by colchicine (MTT): exacerbated
[6]; diosmin 100 mg/kg + colchicine 5 mg/kg, versus colchicine group
  colchicine-induced CASPASE-1-GSDMD pathway activation in the liver (cl-CASPASE, cl-GSDMD): enhanced
[6]; diosmin 100 mg/kg by gavage 2 h prior to colchicine 5 mg/kg
  colchicine-induced hepatotoxicity (MDA, AST, ALT, ALP): effectively aggravated

## O=c1cc(-c2ccccc2)oc2c1ccc1ccccc12 [α-naphthoflavone]
[1]; colchicine + different concentrations of α-naphthoflavone, dose-gradient manner, versus colchicine group
  CASPASE-1-GSDMD pathway protein levels in primary hepatocytes: restored the abnormal protein levels
[7]; α-naphthoflavone 30 mg/kg i.p. 2 h prior to colchicine 5 mg/kg, 3 days
  colchicine-induced liver injury (AST, ALT enzyme activity and MDA oxidative stress): significantly alleviated
[7]; α-naphthoflavone 30 mg/kg i.p. + colchicine 5 mg/kg, versus colchicine group
  CASPASE-1-GSDMD pathway proteins (cl-CASPASE, cl-GSDMD) in the liver: significantly down-regulated
[8]
  demethylation metabolism of colchicine by CYP1A1: significantly inhibited
